According to ChEMBL document CHEMBL4402583, “Rational Substitution of ε-Lysine for α-Lysine Enhances the Cell and Membrane Selectivity of Pore-Forming Melittin” (J Med Chem, 2020):
≈ marks a conversion by molar mass, not a printed value. Calls of active or inactive are those of the source. No cut-off for these calls is given here.

Assays:
Pseudomonas aeruginosa = test: Antibacterial activity against Pseudomonas aeruginosa assessed as reduction in bacterial growth incubated for 24 hrs by broth microdilution method; assay type: functional
Candida albicans = test: Antifungal activity against Candida albicans assessed as reduction in fungal growth incubated for 24 hrs by broth microdilution method; assay type: functional
Staphylococcus aureus [1] = test: Antibacterial activity against methicillin-sensitive Staphylococcus aureus assessed as reduction in bacterial growth incubated for 24 hrs by broth microdilution method; assay type: functional
Staphylococcus aureus [2] = test: Antibacterial activity against methicillin-resistance Staphylococcus aureus assessed as reduction in bacterial growth incubated for 24 hrs by broth microdilution method; assay type: functional
Enterococcus = test: Antibacterial activity against vancomycin-resistant Enterococcus assessed as reduction in bacterial growth incubated for 24 hrs by broth microdilution method; assay type: functional
Acinetobacter baumannii [3] = test: Antibacterial activity against multidrug-resistant Acinetobacter baumannii assessed as reduction in bacterial growth incubated for 24 hrs by broth microdilution method; assay type: functional
Enterobacteriaceae = test: Antibacterial activity against Carbapenem-Resistant Enterobacteriaceae assessed as reduction in bacterial growth incubated for 24 hrs by broth microdilution method; assay type: functional
[4] = Cytotoxicity against HDF cells assessed as cell viability at 500 ug/ml incubated for 24 hrs by MTS assay relative to control; assay type: cell-based; conditions: human, HDF cells (NHDF, human dermal fibroblasts); read-out: Activity
NHDF = test: Cytotoxicity against HDF cells assessed as truncation and reduction in cytoskeleton at 500 ug/ml incubated for 24 hrs by Alexa Fluor […] phalloidin-FITC/Hoescht dye staining based fluorescence microscopic analysis; assay type: cell-based; conditions: human
HaCaT = test: Cytotoxicity against human HaCaT cells assessed as truncation and reduction in cytoskeleton at 500 ug/ml incubated for 24 hrs by Alexa Fluor […] phalloidin-FITC/Hoescht dye staining based fluorescence microscopic analysis; assay type: cell-based
[5] = Hemolytic activity against human erythrocytes assessed as hemoglobin release incubated for 1 hr; assay type: ADME, cell-based, Erythrocyte; conditions: read-out: HD50
Enterococcus faecalis [6] = test: Antibacterial activity against vancomycin-resistant Enterococcus faecalis ATCC 29212 assessed as log10 reduction in bacterial viability at 2 to 4 times MIC incubated for 30 mins in MHB medium followed by reincubation on MH agar plate for 24 to 48 hrs by time kill kinetics analysis; assay type: functional
Enterococcus faecalis [7] = test: Antibacterial activity against vancomycin-resistant Enterococcus faecalis 1010 assessed as log10 reduction in bacterial viability at 2 to 4 times MIC incubated for 30 mins in MHB medium followed by reincubation on MH agar plate for 24 to 48 hrs by time kill kinetics analysis; assay type: functional
Enterococcus faecalis [8] = test: Antibacterial activity against vancomycin-resistant Enterococcus faecalis 1002 assessed as log10 reduction in bacterial viability at 2 to 4 times MIC incubated for 30 mins in MHB medium followed by reincubation on MH agar plate for 24 to 48 hrs by time kill kinetics analysis; assay type: functional
Acinetobacter baumannii [9] = test: Antibacterial activity against Acinetobacter baumannii 1001 assessed as reduction in bacterial viability at 2 or 4 times MIC incubated up to 24 hrs in MHB medium followed by reincubation on MH agar plate for 24 to 48 hrs by time kill kinetics assay; assay type: functional, organism-based
Escherichia coli [10] = test: Antibacterial activity against Escherichia coli 1004 assessed as reduction in bacterial viability at 2 or 4 times MIC incubated up to 24 hrs in MHB medium followed by reincubation on MH agar plate for 24 to 48 hrs by time kill kinetics assay; assay type: functional, organism-based
Klebsiella pneumoniae = test: Antibacterial activity against Klebsiella pneumoniae 1008 assessed as reduction in bacterial viability at 2 or 4 times MIC incubated up to 24 hrs in MHB medium followed by reincubation on MH agar plate for 24 to 48 hrs by time kill kinetics assay; assay type: functional, organism-based
Enterococcus faecalis [11] = test: Induction of pore formation in intact vancomycin-resistant Enterococcus faecalis ATCC 29212 cell membrane assessed as SG uptake at 2 times MIC by SG dye based fluorescence based assay; assay type: organism-based
Enterococcus faecalis [12] = test: Induction of pore formation in intact vancomycin-resistant Enterococcus faecalis 1002 cell membrane assessed as SG uptake at 2 times MIC by SG dye based fluorescence based assay; assay type: organism-based
Acinetobacter baumannii [13] = test: Induction of pore formation in intact Acinetobacter baumannii 1001 cell membrane assessed as SG uptake at 2 times MIC by SG dye based fluorescence based assay; assay type: organism-based
Escherichia coli [14] = test: Induction of pore formation in intact Escherichia coli 1004 cell membrane assessed as SG uptake at 2 times MIC by SG dye based fluorescence based assay; assay type: organism-based
Acinetobacter baumannii [15] = test: Antibacterial activity against Acinetobacter baumannii ATCC 19606 assessed as reduction in bacterial growth at sublethal concentrations measured after 20 serial passages by broth microdilution method; assay type: functional, organism-based; conditions: ATCC 19606 = CIP 70.34 = JCM 6841
Enterococcus faecalis [16] = test: Resistance index, ratio of MIC for vancomycin-resistant Enterococcus faecalis 1010 measured after 20 serial passages by broth microdilution method to MIC for vancomycin-resistant Enterococcus faecalis 1010 incubated for 24 hrs by broth microdilution method; assay type: functional
T-cell [17] = test: Immunogenicity in human PBL T cells assessed as increase in IL-2 production at 62.5 or 125 ug/ml incubated for 24 hrs by ELISA; assay type: ADME, cell-based
T-cell [18] = test: Immunogenicity in human PBL T cells assessed as increase in IL-4 production at 62.5 or 125 ug/ml incubated for 24 hrs by ELISA; assay type: ADME, cell-based
T-cell [19] = test: Immunogenicity in human PBL T cells assessed as increase in IL-5 production at 62.5 or 125 ug/ml incubated for 24 hrs by ELISA; assay type: ADME, cell-based
T-cell [20] = test: Immunogenicity in human PBL T cells assessed as increase in IFN-gamma production at 62.5 or 125 ug/ml incubated for 24 hrs by ELISA; assay type: ADME, cell-based
[21] = Stability of the compound in rabbit tear fluid measured after 2 hrs by UPLC-MS analysis; assay type: ADME, Oryctolagus cuniculus
[22] = Stability of the compound in rabbit tear fluids assessed as parent compound remaining measured after 4 hrs by UPLC-MS analysis; assay type: ADME, Oryctolagus cuniculus; conditions: tear fluid, read-out: Stability
Oryctolagus cuniculus [23] = test: Induction of reepithelialization in injured New Zealand white rabbit cornea assessed as wound healing at 0.3% administered topically for qid measured at day 1 post-injury by fluorescein sodium staining based microscopic imaging analysis (reference value: 89.9 +/- 2.9 %); assay type: organism-based; conditions: in vivo, topical_or_ocular
Oryctolagus cuniculus [24] = test: Induction of reepithelialization in injured New Zealand white rabbit cornea assessed as wound healing administered topically for qid measured at day 2 post-injury by fluorescein sodium staining based microscopic imaging analysis (reference value: 76.6 +/- 4.5 %); assay type: organism-based; conditions: in vivo, topical_or_ocular
Oryctolagus cuniculus [25] = test: Induction of reepithelialization in injured New Zealand white rabbit cornea assessed as wound healing administered topically for qid measured at day 3 post-injury by fluorescein sodium staining based microscopic imaging analysis (reference value: 63.9 +/- 5.3 %); assay type: organism-based; conditions: in vivo, topical_or_ocular
Oryctolagus cuniculus [26] = test: Induction of reepithelialization in injured New Zealand white rabbit cornea assessed as wound healing administered topically for qid measured at day 4 post-injury by fluorescein sodium staining based microscopic imaging analysis (reference value: 48.4 +/- 7.6 %); assay type: organism-based; conditions: in vivo, topical_or_ocular
Oryctolagus cuniculus [27] = test: Induction of reepithelialization in injured New Zealand white rabbit cornea assessed as wound healing administered topically for qid measured at day 5 post-injury by fluorescein sodium staining based microscopic imaging analysis (reference value: 39.8 +/- 6.2 %); assay type: organism-based; conditions: in vivo, topical_or_ocular
Oryctolagus cuniculus [28] = test: Induction of reepithelialization in injured New Zealand white rabbit cornea assessed as wound healing administered topically for qid measured at day 6 post-injury by fluorescein sodium staining based microscopic imaging analysis (reference value: 24.1 +/- 8.5 %); assay type: organism-based; conditions: in vivo, topical_or_ocular
Oryctolagus cuniculus [29] = test: Induction of reepithelialization in injured New Zealand white rabbit cornea assessed as wound healing administered topically for qid measured at day 7 post-injury by fluorescein sodium staining based microscopic imaging analysis (reference value: 8.6 %); assay type: organism-based; conditions: in vivo, topical_or_ocular
Oryctolagus cuniculus [30] = test: Induction of reepithelialization in injured New Zealand white rabbit cornea assessed as wound healing administered topically for qid measured at day 8 post-injury by fluorescein sodium staining based microscopic imaging analysis (reference value: 3.8 %); assay type: organism-based; conditions: in vivo, topical_or_ocular
Staphylococcus aureus [31] = test: In vivo antibacterial activity against Staphylococcus aureus ATCC 29213 infected in C57BL/6 mouse assessed as reduction in bacterial burden by measuring log10 CFU/cornea at 0.3% administered topically as two times on day 1, four times on day 2 and two times on day 3 measured at 48 hrs post-final dose by 10 fold serial dilution method (reference value: 6.5 +/- 0.7 log10CFU); assay type: functional

## CC[C@H](C)[C@H](NC(=O)CN)C(=O)NCC(=O)N[C@@H](C)C(=O)N[C@H](C(=O)N[C@@H](CC(C)C)C(=O)NCCC[C@@H](CN)C(=O)N[C@H](C(=O)N[C@@H](CC(C)C)C(=O)N[C@H](C(=O)N[C@H](C(=O)NCC(=O)N[C@@H](CC(C)C)C(=O)N1CCC[C@H]1C(=O)N[C@@H](C)C(=O)N[C@@H](CC(C)C)C(=O)N[C@H](C(=O)N[C@@H](CO)C(=O)N[C@@H](Cc1c[nH]c2ccccc12)C(=O)N[C@H](C(=O)NCCC[C@@H](CN)C(=O)N[C@@H](CCCNC(=N)N)C(=O)N[C@@H](CCCCN)C(=O)N[C@@H](CCCNC(=N)N)C(=O)N[C@@H](CCC(N)=O)C(=O)N[C@@H](CCC(N)=O)C(N)=O)[C@@H](C)CC)[C@@H](C)CC)[C@@H](C)O)[C@@H](C)O)C(C)C)C(C)C
Pseudomonas aeruginosa
  MIC: 8 to 64 µg/mL (≈ 2.81 to 22.5 µM)
  MIC50: 32 µg/mL (≈ 11.2 µM)
Candida albicans
  MIC: 16 to 32 µg/mL (≈ 5.62 to 11.2 µM)
  MIC50: 32 µg/mL (≈ 11.2 µM)
Staphylococcus aureus [1]
  MIC: 16 to 128 µg/mL (≈ 5.62 to 45 µM)
  MIC50: 64 µg/mL (≈ 22.5 µM)
Staphylococcus aureus [2]
  MIC50: 64 µg/mL (≈ 22.5 µM)
Enterococcus
  MIC: 4 to 16 µg/mL (≈ 1.41 to 5.62 µM)
  MIC50: 8 µg/mL (≈ 2.81 µM)
Acinetobacter baumannii [3]
  MIC: 2 to 8 µg/mL (≈ 0.703 to 2.81 µM)
  MIC50: 4 µg/mL (≈ 1.41 µM)
Enterobacteriaceae
  MIC: 4 to 64 µg/mL (≈ 1.41 to 22.5 µM)
  MIC50: 8 µg/mL (≈ 2.81 µM)
[4]
  viability at 24 h, 500 ug/ml: 91.9%
NHDF
  Activity: Toxic
HaCaT
  Activity: Toxic
[5]
  HC50 at 1 h: 215 µg/mL
Enterococcus faecalis [6]
  log(activity): >5
Enterococcus faecalis [7]
  log(activity): >5
Enterococcus faecalis [8]
  log(activity): >5
Acinetobacter baumannii [9]
  Activity: Active
Escherichia coli [10]
  Activity: Active
Klebsiella pneumoniae
  Activity: Active
Enterococcus faecalis [11]
  Activity: Active
Enterococcus faecalis [12]
  Activity: Active
Acinetobacter baumannii [13]
  Activity: Active
Escherichia coli [14]
  Activity: Active
Acinetobacter baumannii [15]
  Activity: Active
Enterococcus faecalis [16]
  Ratio: 4
T-cell [17]
  Activity: Non-Toxic
T-cell [18]
  Activity: Non-Toxic
T-cell [19]
  Activity: Non-Toxic
T-cell [20]
  Activity: Non-Toxic
[21]
  Stability: Stable
[22]
  remaining at 4 h: 90.3%
Oryctolagus cuniculus [23]
  Activity: 83.4%
Oryctolagus cuniculus [24]
  Activity: 60.3%
Oryctolagus cuniculus [25]
  Activity: 44.9%
Oryctolagus cuniculus [26]
  Activity: 33.1%
Oryctolagus cuniculus [27]
  Activity: 21.7%
Oryctolagus cuniculus [28]
  Activity: 14.7%
Oryctolagus cuniculus [29]
  Activity: 4.6%
Oryctolagus cuniculus [30]
  Activity: 2.9%
Staphylococcus aureus [31]
  Activity: 3.9 log10CFU
